Data from patent US4221794A, “Method of imparting immunomodulating and antiviral activity” (Newport Pharmaceuticals International, Inc., priority 1979, dated 1980).
“And” between values parts separate entries of the source, which are not always exact repeats. Identical values can stand only once. Like-named read-outs stand apart in the source and are kept apart here.

Key:
influenza virus [1] = test: microbe, parasite or virus in culture; assay type: cell-based, influenza virus Type A/USSR 90 (HeLa cell cultures)
influenza virus [2] = test: Anti-influenza activity (overall); assay type: cell-based, several strains of A and B sub-types
[3] = tested on: human peripheral blood lymphocytes; test: Mitogen (PHA) induced human lymphocyte proliferation; assay type: cell-based; conditions: plus = immunostimulating, minus = immunoinhibiting, 0 = neither
guinea pig macrophages = test: Lymphokine (MMF) induced guinea pig macrophage proliferation; assay type: cell-based; conditions: plus = immunostimulating, minus = immunoinhibiting, 0 = neither
Protocol: 3. The macrophage represents a subpopulation of white blood cells which is an important component of the immune system in control of both cellular and humoral immunity. The assay system described below evaluates the substances studied as potentiators of macrophage function.
Phytohemagglutinin (PHA) (HA-17) was purchased from Burroughs Wellcome. A preparation containing Macrophage Mitogen Factor (MMF) and Macrophage Activating Factor (MAF) was prepared from antigen-stimulated immune lymph node lymphocytes (guinea pig) as previously described by Hadden et al, Nature 257, 483-485 (1975). […] The active fraction was employed in both the proliferation and activation assays.
Ficoll-hypaque purified human peripheral blood lymphocytes were prepared and PHA-induced lymphocyte proliferation was assayed by the incorporation of tritiated thymidine as described in Hadden et al., Cell. Immunol. 20, 98-103 (1975). Each compound was analyzed in the presence of suboptimal, optimal and supraoptimal concentrations of PHA (0.001, 0.01, 0.1 units/ml respectively). Paraffin oil-induced guinea pig peritoneal macrophages were prepared and incubated as monolayer culture (>98% pure macrophages). Lymphokine (MMF)-induced proliferation was assayed by the incorporation of tritiated thymidine at 3 and 5 days of culture as described, Hadden et al, Nature 257, 483-485 (1975). Lymphokine (MAF)-induced macrophage activation to kill Listeria monocytogenes following 5 days of culture in the presence or absence of MAF was performed during a 6 hour period as described in Hadden and England, Immunopharmacology, pages 87-100 (Plenum Press, 1977). Phagocytosis was quantitated during a 20-minute exposure to Listeria monocytogenes by counting the number of macrophages containing bacteria and the number of bacteria per phagocytic cell on gram stained monolayers in Labtek chambers. Intracellular killing of bacteria was evaluated by counting the number of cells containing bacteria and the number of bacteria/cell 6 hours after the initial 20 minute exposure. Parallel experiments in which macrophages were lysed and intracellular bacteria were cultured confirm the validity of bacterial activity determined by this manner in this system. The drugs were employed in each of the three systems over serial log concentration range in triplicate in the presence and absence of mitogen or lymphokine. Each type of experiment was performed at least three times. Previous experiments indicate a parallelism of response to pharmacologic modulation in the proliferation and achivation assays.
(§1) Table 4 above presents the results of an evaluation of a number of these subject compounds as potentiators of the immune response. Three different test systems were used. The first involves a measure of the ability of the test compound to enhance the ability of mouse lymphocytes to proliferate in response to a plant mitogen (Con A). The second involves measuring the ability of the test compounds to enhance human lymphocyte proliferation in response to a second plant mitogen (PHA). The third system measures the ability of these test substances to enhance macrophage proliferation in response to a natural lymphokine (MMF, Macrophage Mitogenic Factor).

mouse lymphocytes = test: Mitogen (Con A) induced mouse lymphocyte (spleen cell) proliferation; assay type: cell-based; conditions: for Maximum Percent Change, Mitogen Induced (Con A) Mouse Lymph. Prolif.: plus = immunostimulating, minus = immunoinhibiting, 0 = neither
Description: The following three assay procedures are used to evaluate the ability of the test substances to modulate the activity of several classes of cells in the immune system. In these systems it is possible to identify both immunopotentiating activity (evidence by an enhancement of the parameter examined) as well as immunosuppressant activity (evidenced by an inhibition of the parameter examined).
1. Mitogen-Induced Mouse Spleen Cell Assay
Mouse spleen cells contain a population of both B and T lymphocytes which can be stimulated by a number of foreign substances (e.g., plant mitogens such as Con A) to proliferate. This enhanced proliferation is an indication of enhanced cell mediated immunity. The method below describes the system used to evaluate test substances as immunopotentiators.
Concanavalin A (Calbiochem, La Jolla, California), Lot #210073, lyophilized in NaCl, was prepared first as a 1% solution and diluted as a 2×concentration for each dilution (0.5, 1.0, 2.5 μg/ml).
Six to eight week old male Balb/c and C3 H inbred mice were obtained from the following sources: Flow Research Animals, Inc., Dublin, Virginia; Charles River Breeding Laboratories, Wilmington, Massachusetts; Laboratory Supply Company, Indianapolis, Indiana; and Lionel Strong Foundation, San Diego, California.
Three to five mice were sacrificed by cervical dislocation and the spleens aseptically removed. Pooled spleens were minced and teased with sterile forceps; then strained through a double layer of nylon mesh. The cell suspension was washed once with 15 ml of RPMI 1640 supplemented with 5% fetal calf serum and antibiotics. Cells were cultured at a concentration of 10^6 cells/0.1 ml/well in micro-plates. Cultures were incubated in the presence or absence of mitogen in a humidified atmosphere containing 5% CO2 for 48 hours. The test compound was added to cultures at various concentrations concommitant with mitogen.
Proliferation was assayed by the degree of incorporation of 1.0 μCi of [^3 H] thymidine over an 18 hour incubation period. Cultures were harvested by a MASH unit (Otto Hiller Co., Madison, Wisconsin) and thymidine incorporation was assayed by liquid scintillation spectrometry. Cultures were performed in triplicate and data are expressed as means plus or minus the standard error of the experimental means. Drug stimulation indices over control values were also calculated and portrayed graphically.
as §1

[4] = tested on: Influenza A Swine 1976 (Hlsw -N1); assay type: cell-based; conditions: listed as 15417
[5] = 1.0-10 (unit not printed), listed as 15417

CC(=O)Nc1ccc(C(=O)O)cc1.CC(O)CN(C)C [compound 15110, dimethylamino-2-propanol-p-acetamido benzoate, reference compound]
% Inhibition of Hemadsorption Foci (influenza virus [1]): 0%

CC(CO)n1cnc2c(N)ncnc21 (centres unmarked) [NPT 15434]
% Inhibition of Hemadsorption Foci (influenza virus [1]; Test Compound Conc. >100 μg/ml, listed as 15434): 62% | potentiation of anti-influenza activity by DIP.PAcBA salt (influenza virus [2]): Yes

CC(O)Cn1cnc2c(=O)[nH]cnc21 (centres unmarked) [NPT 15446, 9-(2-HYDROXY-1-PROPYL)HYPOXANTHINE]
Maximum Percent Change, Mitogen Induced (PHA) Human Lymph. Prolif. ([3]; 1.0-10 (unit not given)): 0% | Maximum Percent Change, Mitogen Induced (PHA) Human Lymph. Prolif. ([3]; 10-100 (unit not given)): 0% | Maximum Percent Change, Mitogen Induced (PHA) Human Lymph. Prolif. ([3]; .01-1.0 (unit not given)): 0% | % Inhibition of Hemadsorption Foci (influenza virus [1]; Test Compound Conc. <10 μg/ml, listed as 15446): 2% | % Inhibition of Hemadsorption Foci (influenza virus [1]; Test Compound Conc. >100 μg/ml, listed as 15446): 0% | Maximum Percent Change, Lymphokine Induced (MMF) Guinea Pig Mac. Prolif. (guinea pig macrophages; 1.0-10 (unit not given)): 0% | Maximum Percent Change, Lymphokine Induced (MMF) Guinea Pig Mac. Prolif. (guinea pig macrophages; 10-100 (unit not given)): 0% | Maximum Percent Change, Lymphokine Induced (MMF) Guinea Pig Mac. Prolif. (guinea pig macrophages; .01-1.0 (unit not given)): 0% | Maximum Percent Change, Mitogen Induced (Con A) Mouse Lymph. Prolif. (mouse lymphocytes; 1.0-10 (unit not given)): 12% | Maximum Percent Change, Mitogen Induced (Con A) Mouse Lymph. Prolif. (mouse lymphocytes; 10-100 (unit not given)): 0% | Maximum Percent Change, Mitogen Induced (Con A) Mouse Lymph. Prolif. (mouse lymphocytes; .01-1.0 (unit not given)): 6%

CC(CO)n1cnc2c(=O)[nH]cnc21 (centres unmarked) [NPT 15443, 9-(1-HYDROXY-2-PROPYL)HYPOXANTHINE]
Maximum Percent Change, Mitogen Induced (PHA) Human Lymph. Prolif. ([3]; 1.0-10 (unit not given)): +13% | Maximum Percent Change, Mitogen Induced (PHA) Human Lymph. Prolif. ([3]; 10-100 (unit not given)): 0% | Maximum Percent Change, Mitogen Induced (PHA) Human Lymph. Prolif. ([3]; .01-1.0 (unit not given)): 0% | % Inhibition of Hemadsorption Foci (influenza virus [1]; Test Compound Conc. >100 μg/ml, listed as 15443): 0% | Maximum Percent Change, Lymphokine Induced (MMF) Guinea Pig Mac. Prolif. (guinea pig macrophages; 1.0-10 (unit not given)): 0% | Maximum Percent Change, Lymphokine Induced (MMF) Guinea Pig Mac. Prolif. (guinea pig macrophages; .01-1.0 (unit not given)): +20% | Maximum Percent Change, Mitogen Induced (Con A) Mouse Lymph. Prolif. (mouse lymphocytes; 1.0-10 (unit not given)): +27% | Maximum Percent Change, Mitogen Induced (Con A) Mouse Lymph. Prolif. (mouse lymphocytes; 10-100 (unit not given)): +27% | Maximum Percent Change, Mitogen Induced (Con A) Mouse Lymph. Prolif. (mouse lymphocytes; .01-1.0 (unit not given)): +17%

CC(CO)n1cnc2c(=O)[nH]cnc21 (centres unmarked) [NPT 15444]
% Inhibition of Hemadsorption Foci (influenza virus [1]; Test Compound Conc. >100 μg/ml, listed as 15444): 54% | potentiation of anti-influenza activity by DIP.PAcBA salt (influenza virus [2]): Yes

CCCCCCC(CO)n1cnc2c(=O)[nH]cnc21 (centres unmarked) [NPT 15417]
Maximum Percent Change, Mitogen Induced (PHA) Human Lymph. Prolif. ([3]; 1.0-10 (unit not given)): 0% | Maximum Percent Change, Mitogen Induced (PHA) Human Lymph. Prolif. ([3]; 10-100 (unit not given)): -50% | Maximum Percent Change, Mitogen Induced (PHA) Human Lymph. Prolif. ([3]; .01-1.0 (unit not given)): 0% | inhibition at 10 µg/mL (influenza virus [1]; unidentified influenza virus, read-out: % Inhibition of Hemadsorption Foci, Test Compound Conc. <10 μg/ml): 18% | inhibition at 100 µg/mL (influenza virus [1]; unidentified influenza virus, read-out: % Inhibition of Hemadsorption Foci, Test Compound Conc. >100 μg/ml): 60% | Maximum Percent Change, Lymphokine Induced (MMF) Guinea Pig Mac. Prolif. (guinea pig macrophages; [5]): 13% | Maximum Percent Change, Lymphokine Induced (MMF) Guinea Pig Mac. Prolif. (guinea pig macrophages; 10-100 (unit not given)): -50% | anti-influenza activity (in words) (influenza virus [2]; compound by itself): significant anti-influenza activity | inhibit the replication of different strains of influenza virus (number of strains) (influenza virus [2]; concentrations ranging from 1-150 μg/ml): at least 4 different strains | % Stimulation, Mitogen Induced Murine Lymphocyte Proliferation (mouse lymphocytes; 01-1.0 μg/ml, listed as 15417): 0% | % Stimulation, Mitogen Induced Murine Lymphocyte Proliferation (mouse lymphocytes; 1.0-10 μg/ml, listed as 15417): 0% | Maximum Percent Change, Mitogen Induced (Con A) Mouse Lymph. Prolif. (mouse lymphocytes; [5]): 0% | % Stimulation, Mitogen Induced Murine Lymphocyte Proliferation (mouse lymphocytes; 10-100 μg/ml, listed as 15417): 0% | Maximum Percent Change, Mitogen Induced (Con A) Mouse Lymph. Prolif. (mouse lymphocytes; 10-100 (unit not printed), listed as 15417): 0% | Maximum Percent Change, Mitogen Induced (Con A) Mouse Lymph. Prolif. (mouse lymphocytes; .01-1.0 (unit not printed), listed as 15417): 0% | % Stimulation, Mitogen Induced Murine Lymphocyte Proliferation (mouse lymphocytes; >100 μg/ml): 0% | % Inhibition [4]: 50-70% and > 70%

O=c1[nH]cnc2c1ncn2CCO [NPT 15425, 9-HYDROXYETHYL HYPOXANTHINE]
Maximum Percent Change, Mitogen Induced (PHA) Human Lymph. Prolif. ([3]; 1.0-10 (unit not given)): 0% | Maximum Percent Change, Mitogen Induced (PHA) Human Lymph. Prolif. ([3]; 10-100 (unit not given)): 0% | Maximum Percent Change, Mitogen Induced (PHA) Human Lymph. Prolif. ([3]; .01-1.0 (unit not given)): 100% | Maximum Percent Change, Mitogen Induced (Con A) Mouse Lymph. Prolif. (mouse lymphocytes; 1.0-10 (unit not given)): 0% | Maximum Percent Change, Mitogen Induced (Con A) Mouse Lymph. Prolif. (mouse lymphocytes; .01-1.0 (unit not given)): 11%
